Where “and” joins values, the source holds several entries; their conditions need not be identical. Equal values may be shown once. Read-outs that look alike come from different tables or passages of the source.

Assay [1] concerns the target T1, Ser443-hGDH1 (Arg443Ser hGDH1 mutant) (Homo sapiens, UniProt P00367, R496S).
T1 construct: made in house; host or cells: Sf21 insect cells
Briefly: Inhibition of purified recombinant GDH by female steroidal hormones. Format: biochemical. From the text:
(§1) Production and Purification of Recombinant hGDHs.
Purification of Recombinant Wild-Type and Mutant hGDHs—Using extracts of Sf21 cells expressing wild-type hGDH1 or hGDH2, or the Arg443Ser hGDH1 mutant were purified to homogeneity using a previously described procedure (Kanavouras et al., 2007). Also, as described below, the Arg443Ser/Gly456Ala double mutant and the Ser409Arg/Asp single mutants of hGDH1 and the Ser445Ala mutant of hGDH2 were studied after they were purified to homogeneity using extracts of Sf21 cells expressing these proteins. Enzyme recoveries and degree of purification of the final products were similar to those of the wild-type hGDH1 and hGDH2.
This was further tested by studying a double mutant of hGDH1 that, in addition to the Arg443Ser change, carries the Gly456Ala polymorphism that confers resistance to GTP. […] That substitution of Ser for Arg443 is responsible for the sensitivity of the wild-type hGDH2 to estrogens was confirmed by reverse mutagenesis experiments in which the Ser443 of hGDH2 was replaced by Arg.

For a further assay, the target named is T2, wild-type hGDH1 (Homo sapiens, UniProt P00367).
T2 construct: made in house; host or cells: Sf21 insect cells, baculovirus
T2 sequence (P00367 54-558): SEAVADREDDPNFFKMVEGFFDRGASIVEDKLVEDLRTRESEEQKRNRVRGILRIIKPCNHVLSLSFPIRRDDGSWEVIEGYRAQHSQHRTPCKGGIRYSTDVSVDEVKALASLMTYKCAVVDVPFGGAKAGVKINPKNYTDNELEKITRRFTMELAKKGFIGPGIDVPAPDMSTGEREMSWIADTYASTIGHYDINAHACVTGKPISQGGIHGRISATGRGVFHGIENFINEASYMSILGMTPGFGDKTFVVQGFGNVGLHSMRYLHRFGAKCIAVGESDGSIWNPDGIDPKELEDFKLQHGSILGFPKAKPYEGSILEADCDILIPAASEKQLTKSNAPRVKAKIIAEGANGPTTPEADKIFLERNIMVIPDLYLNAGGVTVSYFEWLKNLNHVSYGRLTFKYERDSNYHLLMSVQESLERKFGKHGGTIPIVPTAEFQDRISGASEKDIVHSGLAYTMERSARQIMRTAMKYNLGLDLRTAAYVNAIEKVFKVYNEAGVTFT
Described as above. In kind it is biochemical. The procedure:
(§2) For this, a study was performed on the interaction of estrogens with the hGDH2 variant as well as with the wild type-hGDH2 and hGDH1 obtained by expression of the corresponding cDNAs in Sf21 cells.
(§3) Production and Purification of Recombinant hGDHs. […] The produced recombinant hGDHs were purified from Sf21 cell extracts using a previously described method that involves Ammonium Sulfate fractionation, hydrophobic interaction and hydroxyapatite chromatography. […] All hGDH proteins studied were produced and analyzed in parallel.
(§4) Enzyme Assays. GDH activity was assayed spectrophotometrically at 25° C. in the direction of reductive amination of α-ketoglutarate. Initial rates (enzyme velocity at the interval during which the change in absorbance maintained linearity) were recorded. […] Regulation of the human recombinant GDHs by allosteric stimulators was studied by adding to the reaction ADP or L-leucine in various concentrations. Inhibition by GTP was studied by adding this compound in various concentrations to the reaction either in the absence of allosteric modulators or in the presence of 0.1 mM or 1.0 mM ADP. For the heat inactivation studies, samples containing about 50 μg/ml purified enzyme were incubated at 47.5° C. Aliquots were removed at specified time intervals and assayed immediately for enzyme activity.
(§5) Purification of Recombinant Wild-Type and Mutant hGDHs—Using extracts of Sf21 cells expressing wild-type hGDH1 or hGDH2, or the Arg443Ser hGDH1 mutant were purified to homogeneity using a previously described procedure (Kanavouras et al., 2007). Also, as described below, the Arg443Ser/Gly456Ala double mutant and the Ser409Arg/Asp single mutants of hGDH1 and the Ser445Ala mutant of hGDH2 were studied after they were purified to homogeneity using extracts of Sf21 cells expressing these proteins.

The target in assay [2] is T3, hGDH1 (Homo sapiens, UniProt P00367). The experiment in a line: Allosteric stimulation of recombinant GDH by ADP or L-leucine. Format: biochemical. Also noted: made in house; host or cells: Sf21 insect cells, baculovirus. Particulars: positive modulation. The procedure:
as §3, §4

Assay [3] deals with T4, Ala445-hGDH2 (Homo sapiens, UniProt P49448, S498A). Described as above. Particulars: positive modulation. Also noted: made in house; host or cells: Sf21 insect cells, baculovirus. In kind it is biochemical. The procedure:
as §3, §4

Assay [4] concerns the target T5, hGDH2 (Homo sapiens, UniProt P49448).
T5 construct: made in house; host or cells: Sf21 insect cells, baculovirus
The description is as above. The settings on record: positive modulation. Format: biochemical. The procedure: as §3, §4

The next assay concerns the target T6, wild-type hGDH2 (Homo sapiens, UniProt P49448).
T6 construct: made in house; host or cells: Sf21 insect cells, baculovirus
Briefly: Inhibition of purified recombinant GDH by female steroidal hormones. Particulars: for relative inhibition of hGDH2 versus hGDH1: in words. In kind it is biochemical. The procedure: as §2, §3, §4, §5

The target in the next assay is T7, Ser445Ala hGDH2 variant (Homo sapiens, UniProt P49448, S498A).
T7 construct: made in house; host or cells: Sf21 insect cells, baculovirus
T7 sequence (P49448 54-558 S498A): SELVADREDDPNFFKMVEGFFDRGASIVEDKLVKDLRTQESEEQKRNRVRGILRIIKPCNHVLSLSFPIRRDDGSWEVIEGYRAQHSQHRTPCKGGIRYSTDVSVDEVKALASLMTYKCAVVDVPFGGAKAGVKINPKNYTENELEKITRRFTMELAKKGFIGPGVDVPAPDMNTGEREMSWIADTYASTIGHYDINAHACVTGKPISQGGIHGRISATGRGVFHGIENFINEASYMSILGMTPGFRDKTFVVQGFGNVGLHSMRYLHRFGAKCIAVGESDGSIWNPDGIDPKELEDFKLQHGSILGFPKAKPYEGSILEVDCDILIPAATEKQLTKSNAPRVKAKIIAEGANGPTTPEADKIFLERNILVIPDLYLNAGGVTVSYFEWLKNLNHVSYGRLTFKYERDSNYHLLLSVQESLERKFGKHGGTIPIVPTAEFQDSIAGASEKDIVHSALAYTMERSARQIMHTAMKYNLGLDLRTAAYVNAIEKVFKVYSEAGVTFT
The experiment in a line: Inhibition of purified recombinant GDH by estrogens. Format: biochemical. Particulars: baseline conditions (absence of allosteric effectors). The procedure: as §2, §1

Assay [5] deals with T5, hGDH2. Briefly: GTP inhibition of purified recombinant GDH activity. Format: biochemical. The procedure: (§6) To investigate whether the Ser445Ala change modified the protein function of hGDH2, an Ala445-hGDH2 variant was obtained in recombinant form by expressing in Sf21 cells using the baculovirus expression system a GLUD2 cDNA with G instead of 1492T. […] The specific basal activity of the variant was concentration-dependent (FIGS. 6&7), as also previously shown for hGDH2 but not for hGDH1. At enzyme concentrations of about 5 μg/ml, the basal specific activity of the variant approached that of hGDH1 (FIGS. 6 & 7), but in contrast to the latter this activity was resistant to suppression by GTP (Table 3).
as §1

The target in assay [6] is T5, hGDH2. Particulars: Zaganas and Plaitakis, 2002; read-out: IC50 (GTP inhibition); cited from earlier work.
For assay [7], the target named is T3, hGDH1. Also noted: made in house; host or cells: Sf21 insect cells, baculovirus. The settings on record: Zaganas and Plaitakis, 2002; read-out: IC50 (GTP inhibition); cited from earlier work.
Assay [8] concerns the target T3, hGDH1. The experiment in a line: GTP inhibition of purified recombinant GDH activity. In kind it is biochemical. Details: made in house; host or cells: Sf21 insect cells, baculovirus. The procedure:
as §6, §1

The target of assay [9] is T4, Ala445-hGDH2. Described as above. Also noted: made in house; host or cells: Sf21 insect cells, baculovirus. In kind it is biochemical. The procedure: as §6, §1
Assay [10] addresses T3, hGDH1. The procedure: as §3
as §4, with “GDH activity was assayed spectrophotometrically at 25° C. in the direction of reductive amination of α-ketoglutarate.” left out

In assay [11] the target is T4, Ala445-hGDH2. The procedure: as §3
as §4, with “GDH activity was assayed spectrophotometrically at 25° C. in the direction of reductive amination of α-ketoglutarate.” left out

The target of a further assay is Ser445-hGDH2 (Homo sapiens, UniProt P49448). The procedure:
as §3
as §4, with “GDH activity was assayed spectrophotometrically at 25° C. in the direction of reductive amination of α-ketoglutarate.” left out

Where [12] appears, read: No ADP (baseline conditions), read-out: IC50.

T3 sequence (P00367 54-558): as the sequence (P00367 54-558) above
T4 sequence (P49448 54-558 S498A): as the sequence (P49448 54-558 S498A) above
T1 sequence (P00367 54-558 R496S): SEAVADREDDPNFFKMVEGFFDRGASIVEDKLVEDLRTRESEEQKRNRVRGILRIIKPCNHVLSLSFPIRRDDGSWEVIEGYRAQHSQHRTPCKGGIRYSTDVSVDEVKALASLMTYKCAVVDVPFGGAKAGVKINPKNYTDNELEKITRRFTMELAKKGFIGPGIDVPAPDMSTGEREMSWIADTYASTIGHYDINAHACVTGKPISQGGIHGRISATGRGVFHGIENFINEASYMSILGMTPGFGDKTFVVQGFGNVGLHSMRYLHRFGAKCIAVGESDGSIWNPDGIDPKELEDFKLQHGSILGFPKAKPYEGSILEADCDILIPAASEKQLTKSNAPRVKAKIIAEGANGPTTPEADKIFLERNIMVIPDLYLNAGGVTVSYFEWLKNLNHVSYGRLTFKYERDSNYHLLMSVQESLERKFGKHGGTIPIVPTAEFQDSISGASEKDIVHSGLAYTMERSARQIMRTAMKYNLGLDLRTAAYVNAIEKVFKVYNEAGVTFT
T6 sequence (P49448 54-558): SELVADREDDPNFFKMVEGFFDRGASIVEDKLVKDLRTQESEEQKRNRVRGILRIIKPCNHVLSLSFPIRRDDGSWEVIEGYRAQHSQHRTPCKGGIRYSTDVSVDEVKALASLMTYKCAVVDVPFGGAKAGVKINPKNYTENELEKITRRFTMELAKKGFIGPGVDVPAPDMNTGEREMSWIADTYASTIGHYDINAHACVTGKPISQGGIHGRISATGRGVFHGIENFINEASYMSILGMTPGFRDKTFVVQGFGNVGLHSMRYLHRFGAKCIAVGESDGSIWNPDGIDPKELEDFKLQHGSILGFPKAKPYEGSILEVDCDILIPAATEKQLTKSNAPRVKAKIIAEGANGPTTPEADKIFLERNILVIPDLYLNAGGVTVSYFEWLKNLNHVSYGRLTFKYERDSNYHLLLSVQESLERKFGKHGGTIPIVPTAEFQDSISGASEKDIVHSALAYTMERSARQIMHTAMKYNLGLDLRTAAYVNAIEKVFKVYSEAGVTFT
T5 sequence (P49448 54-558): as above
Chain of Ser445-hGDH2 (P49448 54-558): as above

Regarding `C[C@]12CC[C@@H]3c4ccc(O)cc4CC[C@H]3[C@@H]1CC[C@@H]2O` [17 b-Estradiol, 17 beta-estradiol], the IC50 in [1] came out at 2.22 ± 0.76 µM; on wild-type hGDH1 (IC50, 0.1 mM ADP) it was 69.2 ± 1.3 µM; at wild-type hGDH1 (IC50, No ADP (baseline conditions)) it was 26.9 µM.

Turning to `Nc1ncnc2c1ncn2[C@@H]1O[C@H](COP(=O)(O)OP(=O)(O)O)[C@@H](O)[C@H]1O` [ADP], the figures for the EC50 on hGDH1 [2] (read-out: ADP SC50), on Ala445-hGDH2 [3] (read-out: ADP SC50) and on hGDH2 [4] (read-out: ADP SC50) were 22.4 ± 2.1 µM, 58.2 ± 5.5 µM and 68.5 ± 2.3 µM, respectively.

`CC/C(=C(/CC)c1ccc(O)cc1)c1ccc(O)cc1` [DES, diethylstilbestrol]: the IC50 in assay [1] (0.1 mM ADP, read-out: IC50) was 0.51 ± 0.05 µM; at wild-type hGDH2 (0.1 mM ADP), 1.05 ± 0.09 µM; at wild-type hGDH2 (No ADP (baseline conditions)) it was 0.094 µM and 0.09 µM; at wild-type hGDH1 (0.1 mM ADP, read-out: IC50), 7.07 ± 0.4 µM; on wild-type hGDH1 (setting [12]), 1.67 ± 0.02 µM; on wild-type hGDH1 (baseline conditions (absence of allosteric effectors), read-out: IC50±S.E.), 1.53 µM. The IC50 at Ser445Ala hGDH2 variant was found to be 0.019 ± 0.003 µM. For the same compound, the “fold higher sensitivity/affinity of hGDH2 than hGDH1” value on wild-type hGDH2 (baseline conditions, hGDH2 versus hGDH1) is > 15 fold and ~18 fold. The “effect of inhibitor on Km for α-ketoglutarate, NH3 or glutamate” value on wild-type hGDH2 (inhibitory concentrations of DES, wild-type hGDH1 and hGDH2) is on record as “not altered”.

In the case of `Nc1nc2c(ncn2[C@@H]2O[C@H](COP(=O)(O)OP(=O)(O)OP(=O)(O)O)[C@@H](O)[C@H]2O)c(=O)[nH]1` [GTP], the “Hill Coefficient” value worked out at 1.06 ± 0.16 at hGDH2 [5] (0.1 mM ADP); 0.82 ± 0.11 at hGDH2 [5] (1 mM ADP); 0.72 ± 0.05 at hGDH2 [5] (No ADP); 2.13 ± 0.15 on hGDH1 [8] (0.1 mM ADP); 1.94 ± 0.07 at hGDH1 [8] (1 mM ADP); 1.51 ± 0.07 at hGDH1 [8] (No ADP). In addition, the results for the “Hill Coefficient” value at Ala445-hGDH2 [9] (0.1 mM ADP), at Ala445-hGDH2 [9] (1 mM ADP) and at Ala445-hGDH2 [9] (No ADP) were 1.01 ± 0.09, 0.71 ± 0.04 and 0.80 ± 0.05, respectively. Besides, the IC50 is 12.2 ± 2.65 µM on hGDH2 [5] (0.1 mM ADP); 204 ± 36.4 µM at hGDH2 [5] (1 mM ADP); 40.1 ± 4.46 µM at hGDH2 [5] (No ADP); more than 200 µM at hGDH2 [6]; 0.1 to 0.3 µM at hGDH1 [7]; 1.61 ± 0.02 µM on hGDH1 [8] (0.1 mM ADP). Also, the IC50 came to 18.5 ± 0.49 µM at hGDH1 [8] (1 mM ADP); 0.31 ± 0.03 µM on hGDH1 [8] (No ADP); 24.4 ± 2.62 µM on Ala445-hGDH2 [9] (0.1 mM ADP); 258 ± 42.2 µM at Ala445-hGDH2 [9] (1 mM ADP); 29.1 ± 4.48 µM at Ala445-hGDH2 [9] (No ADP).

`N[C@@H](CCC(=O)O)C(=O)O` [Glutamate]: the Michaelis constant (Km) at hGDH1 [10] (read-out: Km Glutamate) was 12.4 ± 1.48 mM; on Ala445-hGDH2 [11] (read-out: Km Glutamate), 6.8 ± 1.9 mM; on Ser445-hGDH2 (read-out: Km Glutamate) it was 10.7 ± 1.77 mM.

On to `CC(C)C[C@H](N)C(=O)O` [L-leucine], for which the EC50 on hGDH1 [2] (read-out: L-leucine SC50) was 860 ± 139 µM; at Ala445-hGDH2 [3] (read-out: L-leucine SC50), 955 ± 45 µM; at hGDH2 [4] (read-out: L-leucine SC50) it was 1010 ± 213 µM.

On to `C[C@]12CC[C@@H]3c4ccc(O)cc4CC[C@H]3[C@@H]1C[C@@H](O)[C@@H]2O` [Oestriol], for which the IC50 in assay [1] (0.1 mM ADP, read-out: IC50) was 2.43 ± 0.05 µM; on wild-type hGDH2 (0.1 mM ADP), 189 ± 17.9 µM; at wild-type hGDH2 (No ADP (baseline conditions)) it was 11.3 ± 0.74 µM; at wild-type hGDH1 (0.1 mM ADP, read-out: IC50), 316 ± 26.1 µM; on wild-type hGDH1 (setting [12]), 145 ± 18.8 µM. Also, the results for the “relative inhibition of hGDH2 versus hGDH1” value at wild-type hGDH2 and on wild-type hGDH2 (listed as oestriol) were “inhibited hGDH2 more strongly than hGDH” and “inhibited hGDH2 more strongly than hGDH1”, respectively.

As for `CC(=O)[C@H]1CC[C@H]2[C@@H]3CCC4=CC(=O)CC[C@]4(C)[C@H]3CC[C@]12C` [Progesterone], the IC50 in assay [1] (0.1 mM ADP, read-out: IC50) was 8.62 ± 1.23 µM; on wild-type hGDH2 (0.1 mM ADP), 392 ± 8.91 µM; on wild-type hGDH2 (No ADP (baseline conditions)), 12.3 ± 2.63 µM; at wild-type hGDH1 (0.1 mM ADP, read-out: IC50), 596 ± 50.1 µM; on wild-type hGDH1 (setting [12]) it was 219 ± 7.99 µM. In addition, the “relative inhibition of hGDH2 versus hGDH1” value at wild-type hGDH2 is reported as “inhibited hGDH2 more strongly than hGDH”; on wild-type hGDH2 (listed as progesterone) it was “inhibited hGDH2 more strongly than hGDH1”.

With `O=C(O)CCC(=O)C(=O)O` [α-Ketoglutarate], the values for the Km at hGDH1 [10] (read-out: Km α-Ketoglutarate), on Ala445-hGDH2 [11] (read-out: Km α-Ketoglutarate) and at Ser445-hGDH2 (read-out: Km α-Ketoglutarate) were 2.01 ± 0.18 mM, 2.67 ± 0.31 mM and 2.07 ± 0.29 mM, respectively.

By IC50 is commonly meant the midpoint of a concentration-inhibition curve. What is called Km is the substrate concentration at which the rate is half of its maximum.

The values above are taken from patent publication US8361728B2, “Method for diagnosis of glutamate dehydrogenase disorders” (priority 2008, dated 2013).
